{"source": "ChEMBL document CHEMBL4673295", "about": "(Bioorg Med Chem, 2021)", "key": {"[1]": {"assay": "Binding affinity to Escherichia coli BL21 (DE3) HPPK in presence of ATP and MgCl2 by fluorimetry"}, "[2]": {"assay": "Binding affinity to Escherichia coli HPPK by isothermal titration calorimetry"}, "[3]": {"assay": "Inhibition of Escherichia coli HPPK incubated for 30 mins by thin layer chromatography"}, "[4]": {"assay": "Binding affinity to Escherichia coli BL21 (DE3) HPPK incubated for 10 mins by fluorimetry"}}}
{"smiles": "Nc1nc2c(c(=O)[nH]1)N=C(CO)CN2", "values": [{"measurement": "Kd", "setting": "[1]", "value": 0.17, "unit": "µM"}]}
{"smiles": "CC1(C)Nc2nc(N)[nH]c(=O)c2N=C1C(=O)NCCN1CC[C@@H](S(=O)(=O)C[C@H]2O[C@@H](n3cnc4c(N)ncnc43)[C@H](O)[C@@H]2O)C[C@@H]1C(=O)O", "values": [{"measurement": "Kd", "setting": "[2]", "value": 0.047, "unit": "µM"}]}
{"smiles": "CC1(C)Nc2nc(N)[nH]c(=O)c2N=C1C(=O)NCCN1CC[C@@H](SC[C@H]2O[C@@H](n3cnc4c(N)ncnc43)[C@H](O)[C@@H]2O)C[C@@H]1C(=O)O", "values": [{"measurement": "IC50", "setting": "[3]", "value": 0.38, "unit": "µM"}, {"measurement": "Kd", "setting": "[2]", "value": 0.19, "unit": "µM"}]}
{"smiles": "Nc1ncnc2c1ncn2[C@@H]1O[C@H](COP(=O)(O)OP(=O)(O)OP(=O)(O)O)[C@@H](O)[C@H]1O", "note": "[ADENOSINE TRIPHOSPHATE]", "values": [{"measurement": "Kd", "setting": "[4]", "value": 2.6, "unit": "µM"}]}
